Measured values as given in US9663460B2, “Sulfur derivatives as chemokine receptor modulators” (ALLERGAN, INC., priority 2010, dated 2017).

Target: CCR2 (Homo sapiens (Human), UniProt P41597)
Assay: Calcium activity assayed on the FLIPR Tetra in HEK-Gqi5 cells stably expressing CCR2
Format: cell-based
Conditions: FLIPR Tetra calcium assay

Sequence of CCR2 (P41597 whole entry, species assumed): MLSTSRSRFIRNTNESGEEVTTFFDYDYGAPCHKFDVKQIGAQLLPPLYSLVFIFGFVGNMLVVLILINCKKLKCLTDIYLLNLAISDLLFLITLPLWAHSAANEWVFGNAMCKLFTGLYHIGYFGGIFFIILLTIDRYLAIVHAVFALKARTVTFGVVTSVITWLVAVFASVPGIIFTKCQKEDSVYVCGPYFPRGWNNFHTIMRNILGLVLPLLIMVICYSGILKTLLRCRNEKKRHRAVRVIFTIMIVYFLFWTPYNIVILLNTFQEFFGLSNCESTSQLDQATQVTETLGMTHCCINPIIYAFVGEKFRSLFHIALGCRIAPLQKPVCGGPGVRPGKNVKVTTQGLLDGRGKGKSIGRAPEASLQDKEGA

## C[S+]([O-])c1ccc(Cl)cc1NS(=O)(=O)c1ccc(Cl)cc1 (stereo not shown) [4-chloro-N-[5-chloro-2-(methylsulfinyl)phenyl]benzenesulfonamide]
  CCR2 % ANTAGONISM: 91%
  IC50: 62 nM

## CS(=O)(=O)c1ccc(Cl)cc1NS(=O)(=O)c1ccc(Cl)cc1 [4-chloro-N-[5-chloro-2-(methylsulfonyl)phenyl]benzenesulfonamide]
  CCR2 % ANTAGONISM: 98%
  IC50: 155 nM

## O=S(=O)(Nc1cc(Cl)ccc1SCc1cc[nH]n1)c1cc2ccccc2o1 [N-{5-chloro-2-[(1H-pyrazol-3-ylmethyl)thio]phenyl}-1-benzofuran-2-sulfonamide]
  CCR2 % ANTAGONISM: 99%
  IC50: 16 nM

## CC(=O)Nc1nc(CS(=O)(=O)c2ccc(Cl)cc2NS(=O)(=O)c2cc3ccccc3o2)cs1 [Compound 237, N-{-4-[({2-[(1-benzofuran-2-ylsulfonyl)amino]-4-chlorophenyl}sulfonyl)methyl]-1,3-thiazol-2-yl}acetamide]
  CCR2 % ANTAGONISM: 87%

## Nc1cccc(CS(=O)(=O)c2ccc(Cl)cc2NS(=O)(=O)c2ccc(F)cc2F)c1 [N-{2-[(3-aminobenzyl)sulfonyl]-5-chlorophenyl}-2,4-difluorobenzenesulfonamide]
  CCR2 % ANTAGONISM: 89%
  IC50: 718 nM

## O=S(=O)(Cc1cccc(O)c1)c1ccc(Cl)cc1NS(=O)(=O)c1cc2ccccc2o1 [N-{5-chloro-2-[(3-hydroxybenzyl)sulfonyl]phenyl}-1-benzofuran-2-sulfonamide]
  CCR2 % ANTAGONISM: 96%
  IC50: 56 nM

## CS(=O)(=O)c1ccc(Cl)cc1NS(=O)(=O)c1ccc(Cl)c(C(F)(F)F)c1 [4-chloro-N-[5-chloro-2-(methylsulfonyl)phenyl]-3-(trifluoromethyl)benzenesulfonamide]
  CCR2 % ANTAGONISM: 90%
  IC50: 64 nM

## Cc1ccc(S(=O)(=O)Nc2cc(Cl)ccc2S(C)(=O)=O)o1 [N-[5-chloro-2-(methylsulfonyl)phenyl]-5-methylfuran-2-sulfonamide]
  CCR2 % ANTAGONISM: 90%
  IC50: 990 nM

## O=S(=O)(Cc1cccc[n+]1[O-])c1ccc(Cl)cc1NS(=O)(=O)c1cc2ccccc2o1 [N-(5-chloro-2-{[(1-oxidopyridin-2-yl)methyl]sulfonyl}phenyl)-1-benzofuran-2-sulfonamide]
  CCR2 % ANTAGONISM: 102%
  IC50: 663 nM

## CSc1ccc(Cl)cc1NS(=O)(=O)c1ccc(F)cc1F [N-[5-chloro-2-(methylthio)phenyl]-2,4-difluorobenzenesulfonamide]
  CCR2 % ANTAGONISM: 87%

## O=S(=O)(Nc1cc(Cl)ccc1SCc1cccnc1F)c1cc2ccccc2o1 [N-(5-chloro-2-{[(2-fluoropyridin-3-yl)methyl]thio}phenyl)-1-benzofuran-2-sulfonamide]
  CCR2 % ANTAGONISM: 76%
  IC50: 94 nM

## O=S(=O)(CCO)c1ccc(Cl)cc1NS(=O)(=O)c1ccc(Cl)c(C(F)(F)F)c1 [4-chloro-N-{5-chloro-2-[(2-hydroxyethyl)sulfonyl]phenyl}-3-(trifluoromethyl)benzenesulfonamide]
  CCR2 % ANTAGONISM: 96%
  IC50: 95 nM

## O=S(=O)(Nc1cc(Cl)ccc1[S+]([O-])Cc1cccnc1)c1cc2ccccc2o1 (stereo not shown) [N-{5-chloro-2-[(pyridin-3-ylmethyl)sulfinyl]phenyl}-1-benzofuran-2-sulfonamide]
  CCR2 % ANTAGONISM: 100%
  IC50: 76 nM

## NC(=O)NCC[S+]([O-])c1ccc(Cl)cc1NS(=O)(=O)c1cc2ccccc2o1 (stereo not shown) [N-[2-({2-[(aminocarbonyl)amino]ethyl}sulfinyl)-5-chlorophenyl]-1-benzofuran-2-sulfonamide]
  CCR2 % ANTAGONISM: 64%
  IC50: 1890 nM

## O=S(=O)(Nc1cc(Cl)ccc1[S+]([O-])Cc1ccc[n+]([O-])c1)c1cc2ccccc2o1 (stereo not shown) [N-(5-chloro-2-{[(1-oxidopyridin-3-yl)methyl]sulfinyl}phenyl)-1-benzofuran-2-sulfonamide]
  CCR2 % ANTAGONISM: 101%
  IC50: 646 nM

## O=[N+]([O-])c1cccc(CS(=O)(=O)c2ccccc2NS(=O)(=O)c2cc3ccccc3o2)c1 [N-{2-[(3-nitrobenzyl)sulfonyl]phenyl}-1-benzofuran-2-sulfonamide]
  CCR2 % ANTAGONISM: 83%
  IC50: 2130 nM

## O=S(=O)(Nc1cc(Cl)ccc1[S+]([O-])Cc1c[nH]cn1)c1ccc(Cl)c(C(F)(F)F)c1 (stereo not shown) [4-chloro-N-{5-chloro-2-[(1H-imidazol-4-ylmethyl)sulfinyl]phenyl}-3-(trifluoromethyl)benzenesulfonamide]
  CCR2 % ANTAGONISM: 111%
  IC50: 158 nM

## CN(C)C(=O)CC[S+]([O-])c1ccc(Cl)cc1NS(=O)(=O)c1cc2ccccc2o1 (stereo not shown) [3-({2-[(1-benzofuran-2-ylsulfonyl)amino]-4-chlorophenyl}sulfinyl)-N,N-dimethylpropanamide]
  CCR2 % ANTAGONISM: 104%
  IC50: 160 nM

## Nc1nc(CS(=O)(=O)c2ccc(Cl)cc2NS(=O)(=O)c2cc3ccccc3o2)cs1 [N-(2-{[(2-amino-1,3-thiazol-4-yl)methyl]sulfonyl}-5-chlorophenyl)-1-benzofuran-2-sulfonamide]
  CCR2 % ANTAGONISM: 102%
  IC50: 83 nM

## CSc1ccc(Cl)cc1NS(=O)(=O)c1ccc(Cl)c(C(F)(F)F)c1 [4-chloro-N-[5-chloro-2-(methylthio)phenyl]-3-(trifluoromethyl)benzenesulfonamide]
  CCR2 % ANTAGONISM: 82%
  IC50: 134 nM

## Nc1cccc(CSc2ccc(Cl)cc2NS(=O)(=O)c2ccccc2)c1 [N-{2-[(3-aminobenzyl)thio]-5-chlorophenyl}benzenesulfonamide]
  CCR2 % ANTAGONISM: 40%
  IC50: 3100 nM

## O=S(=O)(Nc1cc(Cl)ccc1SCc1cccnc1)c1cc2ccccc2o1 [N-{5-chloro-2-[(pyridin-3-ylmethyl)thio]phenyl}-1-benzofuran-2-sulfonamide]
  CCR2 % ANTAGONISM: 97%
  IC50: 22 nM

## Nc1cccc(C[S+]([O-])c2ccc(Cl)cc2NS(=O)(=O)c2ccc(Cl)cc2)c1 (stereo not shown) [N-{2-[(3-aminobenzyl)sulfinyl]-5-chlorophenyl}-4-chlorobenzenesulfonamide]
  CCR2 % ANTAGONISM: 99%
  IC50: 159 nM

## Nc1cccc(C[S+]([O-])c2ccc(Cl)cc2NS(=O)(=O)c2cc3ccccc3o2)c1 (stereo not shown) [N-{2-[(3-aminobenzypsulfinyl]-5-chlorophenyl}-1-benzofuran-2-sulfonamide]
  CCR2 % ANTAGONISM: 96%
  IC50: 39 nM

## Nc1cccc(C[S+]([O-])c2ccc(Cl)cc2NS(=O)(=O)c2cccc(Cl)c2)c1 (stereo not shown) [N-{2-[(3-aminobenzypsulfinyl]-5-chlorophenyl}-3-chlorobenzenesulfonamide]
  CCR2 % ANTAGONISM: 93%
  IC50: 159 nM

## O=c1cc(CS(=O)(=O)c2ccc(Cl)cc2NS(=O)(=O)c2cc3ccccc3o2)[nH]c(=O)[nH]1 [N-(5-chloro-2-{[(2,6-dioxo-1,2,3,6-tetrahydropyrimidin-4-yl)methyl]sulfonyl}phenyl)-1-benzofuran-2-sulfonamide]
  CCR2 % ANTAGONISM: 70%

## O=c1cc(C[S+]([O-])c2ccc(Cl)cc2NS(=O)(=O)c2cc3ccccc3o2)[nH]c(=O)[nH]1 (stereo not shown) [N-(5-chloro-2-{[(2,6-dioxo-1,2,3,6-tetrahydropyrimidin-4-yl)methyl]sulfinyl}phenyl)-1-benzofuran-2-sulfonamide]
  CCR2 % ANTAGONISM: 62%

## O=S(=O)(Cc1ccccc1)c1ccc(Cl)cc1NS(=O)(=O)c1cc2ccccc2o1 [N-[2-(benzylsulfonyl)-5-chlorophenyl]-1-benzofuran-2-sulfonamide]
  CCR2 % ANTAGONISM: 90%
  IC50: 34 nM

## O=S(=O)(Cc1cccnc1F)c1ccc(Cl)cc1NS(=O)(=O)c1cc2ccccc2o1 [N-(5-chloro-2-{[(2-fluoropyridin-3-yl)methyl]sulfonyl}phenyl)-1-benzofuran-2-sulfonamide]
  CCR2 % ANTAGONISM: 88%
  IC50: 79 nM

## NCCCS(=O)(=O)c1ccc(Cl)cc1NS(=O)(=O)c1cc2ccccc2o1 [N-{2-[(3-aminopropyl)sulfonyl]-5-chlorophenyl}-1-benzofuran-2-sulfonamide]
  CCR2 % ANTAGONISM: 82%

## Nc1cccc(CS(=O)(=O)c2ccc(Cl)cc2NS(=O)(=O)c2cc3ccccc3o2)n1 [N-(2-{[(6-aminopyridin-2-yl)methyl]sulfonyl}-5-chlorophenyl)-1-benzofuran-2-sulfonamide]
  CCR2 % ANTAGONISM: 102%
  IC50: 15 nM

## O=S(=O)(Nc1cc(Cl)ccc1SCc1cccnc1)c1ccc(Cl)c(C(F)(F)F)c1 [4-chloro-N-{5-chloro-2-[(pyridin-3-ylmethyl)thio]phenyl}-3-(trifluoromethyl)benzenesulfonamide]
  CCR2 % ANTAGONISM: 85%
  IC50: 94 nM

## CNC(=O)CS(=O)(=O)c1ccc(Cl)cc1NS(=O)(=O)c1ccc(Cl)c(C(F)(F)F)c1 [2-{[4-chloro-2-({[4-chloro-3-(trifluoromethyl)phenyl]sulfonyl}amino)phenyl]sulfonyl}-N-methylacetamide]
  CCR2 % ANTAGONISM: 96%
  IC50: 469 nM

## O=S(=O)(Nc1cc(Cl)ccc1[S+]([O-])Cc1c[nH]cn1)c1cc2ccccc2o1 (stereo not shown) [N-{5-chloro-2-[(1H-imidazol-4-ylmethyl)sulfinyl]phenyl}-1-benzofuran-2-sulfonamide]
  CCR2 % ANTAGONISM: 108%
  IC50: 296 nM

## Cc1n[nH]c(C)c1CC[S+]([O-])c1ccc(Cl)cc1NS(=O)(=O)c1cc2ccccc2o1 (stereo not shown) [N-(5-chloro-2-{[2-(3,5-dimethyl-1H-pyrazol-4-yl)ethyl]sulfinyl}phenyl)-1-benzofuran-2-sulfonamide]
  CCR2 % ANTAGONISM: 83%
  IC50: 3050 nM

## O=S(=O)(Nc1cc(Cl)ccc1[S+]([O-])Cc1ccccn1)c1ccc(Cl)c(C(F)(F)F)c1 (stereo not shown) [4-chloro-N-{5-chloro-2-[(pyridin-2-ylmethyl)sulfinyl]phenyl}-3-(trifluoromethyl)benzenesulfonamide]
  CCR2 % ANTAGONISM: 83%
  IC50: 92 nM

## O=[N+]([O-])c1cc(CSc2ccc(Cl)cc2NS(=O)(=O)c2cc3ccccc3o2)n[nH]1 [N-(5-chloro-2-{[(5-nitro-1H-pyrazol-3-yl)methyl]thio}phenyl)-1-benzofuran-2-sulfonamide]
  CCR2 % ANTAGONISM: 91%

## CNC(=O)C[S+]([O-])c1ccc(Cl)cc1NS(=O)(=O)c1ccc(Cl)c(C(F)(F)F)c1 (stereo not shown) [2-{[4-chloro-2-({[4-chloro-3-(trifluoromethyl)phenyl]sulfonyl}amino)phenyl]sulfinyl}-N-methylacetamide]
  CCR2 % ANTAGONISM: 91%
  IC50: 329 nM
